The values that follow come from ChEMBL document CHEMBL6109042, “Metabologenomics-Driven Discovery of Nocardimicins from a Psychrophilic Nocardia sp. Strain” (J Nat Prod, 2025).

pIC50: −log10 of the molar value.

This experiment has as its system HeLa. As to the kind of experiment: Cytotoxicity against human HeLa cells. Type of experiment: functional, cell-based.

As a reminder, the pIC50 is −log10 of the IC50, conventionally taken in molar units. Read a high pIC50 as a small IC50. `CCCCCCCCCCCCC/C=C\CCC(OC(=O)[C@H](CCCCN(O)C=O)NC(=O)[C@H]1N=C(c2ccccc2O)O[C@@H]1C)C(C)C(=O)N[C@@H]1CCCCN(O)C1=O` (stereo partly drawn) had a pIC50 of 4.78.

For the molecule `CCCCCCCCCCCCCCCCCC(OC(=O)[C@H](CCCCN(O)C=O)NC(=O)[C@H]1N=C(c2ccccc2O)O[C@@H]1C)C(C)C(=O)N[C@@H]1CCCCN(O)C1=O` (stereo partly drawn), the pIC50 was 4.78.

`CCCCCCCCCCCCCCCC(OC(=O)[C@H](CCCCN(O)C=O)NC(=O)[C@H]1N=C(c2ccccc2O)O[C@@H]1C)C(C)C(=O)N[C@@H]1CCCCN(O)C1=O` (stereo partly drawn) gave a pIC50 of 4.78.
